This is an account of results in patent US20170107579A1, “E1 ENZYME MUTANTS AND USES THEREOF” (Millennium Pharmaceuticals, Inc., priority 2011, published 2017).

The target of one assay is T1, wild type UBA3 (NAE) (Homo sapiens, UniProt Q8TBC4).
T1 construct: His; made in house; host or cells: E. coli Rosetta (DE3), co-expression
The experiment in a line: NAE HTRF assay, IC50 at KM for ATP (20 μM). Particulars: read-out: NAE WT IC50. It is filed as biochemical. As to the method: (§1) The enzyme reversibility assay was run in the FLAG-NEDD8-GST-UBC12 HTRF transthiolation assay described previously (Soucy et al., 2009, Brownell et al., 2010). Final concentrations of each enzyme after dilution were 10 pM WT NAEβ, 12.5 pM A171T NAEβ, 30 pM N209K NAEβ, and 33 pM E204K/G201V NAEβ.
(§2) IC50 measurements were performed in the HTRF assay described in Example 6. Assays for each enzyme were performed at their KM for ATP (20 μM for wild type, 120 μM for the A171T mutant).
(§3) An NAE enzymatic reaction totals 50 μL and contains 50 mM HEPES (pH 7.5), 0.05% BSA, 5 mM MgCl2, 20 μM ATP, 250 μM GSH, 0.01 μM UBC12-GST, 0.075 NEDD8-Flag and 0.28 nM recombinant human NAE enzyme. The enzymatic reaction mixture, with and without compound inhibitor, is incubated at 24° C. for 90 minutes in a 384-well plate before termination with 25 μL of Stop/Detection buffer (0.1M HEPES pH 7.5, 0.05% Tween20, 20 mM EDTA, 410 mM KF, 0.53 nM Europium-Cryptate labeled monoclonal anti-FLAG M2 antibody (CisBio International) and 8.125 μg/mL PHYCOLINK goat anti-GST allophycocyanin (XL-APC) antibody (Prozyme)). After incubation for 3 hours at 24° C., quantification of the FRET is performed on the Analyst™ HT 96.384 (Molecular Devices).
(Time-resolved FRET reads energy transfer from a long-lived donor to a nearby acceptor.)

For assay [1], the target named is T2, UBA3 variant with A171T mutation (NAE) (Homo sapiens, UniProt Q8TBC4, A171T).
T2 construct: His; made in house; host or cells: E. coli Rosetta (DE3), co-expression
T2 sequence (Q8TBC4 whole entry A171T): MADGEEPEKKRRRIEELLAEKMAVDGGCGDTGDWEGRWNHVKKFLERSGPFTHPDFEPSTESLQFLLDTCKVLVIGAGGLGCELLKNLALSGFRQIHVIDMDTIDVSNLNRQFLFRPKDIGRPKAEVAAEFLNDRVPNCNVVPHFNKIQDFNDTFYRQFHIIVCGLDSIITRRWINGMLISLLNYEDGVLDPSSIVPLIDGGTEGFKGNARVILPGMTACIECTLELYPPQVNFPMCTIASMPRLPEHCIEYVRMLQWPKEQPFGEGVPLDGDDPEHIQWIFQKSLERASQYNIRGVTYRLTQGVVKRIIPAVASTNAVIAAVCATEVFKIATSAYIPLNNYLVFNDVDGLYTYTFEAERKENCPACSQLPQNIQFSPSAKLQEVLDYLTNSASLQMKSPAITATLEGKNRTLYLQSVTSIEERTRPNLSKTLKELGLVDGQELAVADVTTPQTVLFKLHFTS
T2 sequence (Q13564 whole entry partner): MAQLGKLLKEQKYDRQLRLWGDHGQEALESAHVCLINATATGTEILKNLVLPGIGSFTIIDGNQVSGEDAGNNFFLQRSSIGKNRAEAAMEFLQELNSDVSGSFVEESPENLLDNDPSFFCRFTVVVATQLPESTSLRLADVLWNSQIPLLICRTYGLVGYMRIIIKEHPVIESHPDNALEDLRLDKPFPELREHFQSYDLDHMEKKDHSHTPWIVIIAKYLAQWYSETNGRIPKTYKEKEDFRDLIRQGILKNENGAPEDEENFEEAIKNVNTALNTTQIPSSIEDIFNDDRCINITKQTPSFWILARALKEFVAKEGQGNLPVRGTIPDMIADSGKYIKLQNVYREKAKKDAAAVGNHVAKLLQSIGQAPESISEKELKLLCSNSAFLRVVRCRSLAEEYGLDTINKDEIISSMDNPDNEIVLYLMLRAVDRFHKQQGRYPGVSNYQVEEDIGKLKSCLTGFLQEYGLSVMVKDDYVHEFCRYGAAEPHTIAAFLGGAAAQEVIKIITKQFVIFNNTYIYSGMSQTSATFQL
T2 sequence (Q15843 1-76 partner limits assumed): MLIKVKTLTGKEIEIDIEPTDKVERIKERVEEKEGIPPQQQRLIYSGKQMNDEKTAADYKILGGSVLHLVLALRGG
The experiment in a line: NAE HTRF assay, IC50 at KM for ATP (120 μM). It is filed as biochemical. Particulars: for IC50: UBA3 A171T mutant, HTRF assay at KM for ATP, 120 μM; for A171T/WT: ratio of IC50 A171T mutant to IC50 wild type. As to the method: as §1, §2, §3

In assay [2] the test system is HCT-116 WT, HCT-116.1 A171T and HCT-116.4 C324Y cells. The assay is described as follows: Drug efflux inhibitor co-incubation, ATPlite viability assay. Particulars: co-treatment with MLN4924, 96 hours. The class given is cell-based. As for the experimental part: Treatment of cells with efflux inhibitors. FIG. 8A. […] Co-incubation studies were performed with various inhibitors of drug efflux at their highest non toxic concentration.
Diypridamole (Sigma), MK571 (Tocris), GF918, K0143 (Tocris) and LY5979 were obtained from commercial sources indicated.

The test system of assay [3] is MLN4924 resistant HCT-116 cell clones. The assay is described as follows: Cell viability assay, 96 hours ATPlite, resistant clones. It is filed as cell-based. As to conditions: HCT-116 resistant clones, 96 hours ATPlite. As for the experimental part: HCT-116 cells and resistant clones were treated with DMSO or various concentrations of FIG. 7A. bortezomib, FIG. 7B. doxorubicin or FIG. 7C. SN-38 for 96 hours and cell viability was assessed with ATPlite assay.
Cell line cultures were maintained using appropriate cell culture media as recommended by ATCC and as previously reported (Soucy et al., 2009, Milhollen et al., 2010). […] Cell viability assays completed using 96 hours ATPlite assay (PerkinElmer) as previously reported (Soucy et al., 2009).
For orientation: In ATP-based viability assays light output follows the ATP content of the culture.

T1 sequence (Q8TBC4 whole entry): as the sequence (Q8TBC4 whole entry A171T) above, with T171A counted along it
T1 sequence (Q13564 whole entry partner): as the sequence (Q13564 whole entry partner) above
T1 sequence (Q15843 1-76 partner limits assumed): as the sequence (Q15843 1-76 partner limits assumed) above

What is called IC50 is the concentration that inhibits the measured activity by half. With `NS(=O)(=O)OCC1OC(n2cnc3c(NCc4ccccc4)ncnc32)C(O)C1O` (stereo not drawn) [Compound I-6], at wild type UBA3 (NAE), the IC50 is 0.73 nM. Moreover, in assay [1], the IC50 came to 84 nM and the A171T/WT turned out to be 115.
Taken in the same sequence, the figures for `CNc1ncnc2c1ccn2C1CC(O)C(COS(N)(=O)=O)C1` (stereo not drawn) [Compound I-40] were 72 nM, 630 nM and 9.
Taken in the same sequence, the figures for `Cc1ncnc2c1ccn2[C@@H]1C[C@@H](COS(N)(=O)=O)[C@@H](O)C1` [Compound I-46] were 37 nM, 250 nM and 7.
Regarding `COc1ccc2c3c([nH]c2c1)[C@H](CC(C)C)N1C(=O)[C@H](CCC(=O)OC(C)(C)C)NC(=O)[C@@H]1C3` [Compound K0143], the “sensitization of cells to MLN4924 by Pgp, BCRP and MRP2 inhibitors” value in assay [2] is given as “did not sensitize”.
The same measure, in the same setting: as for `COc1cc2c(cc1OC)CN(CCc1ccc(NC(=O)c3cccc4c(=O)c5cccc(OC)c5[nH]c34)cc1)CC2` [GF120918], the entry is “did not sensitize”; as for `CN(C)C(=O)CCSC(SCCC(=O)O)c1cccc(/C=C/c2ccc3ccc(Cl)cc3n2)c1` (stereo not drawn) [MK519], “did not sensitize”.
In the case of `CCc1c2c(nc3ccc(O)cc13)-c1cc3c(c(=O)n1C2)COC(=O)[C@]3(O)CC` [SN-38], in assay [3], the “sensitivity of MLN4924 resistant clones to other chemotherapies” value is “remained sensitive”.
Still for that read-out and setting: as for `CC(C)C[C@H](NC(=O)[C@H](Cc1ccccc1)NC(=O)c1cnccn1)B(O)O` [bortezomib], the entry is “remained sensitive”; as for `COc1cccc2c1C(=O)c1c(O)c3c(c(O)c1C2=O)C[C@@](O)(C(=O)CO)C[C@@H]3O[C@H]1C[C@H](N)[C@H](O)[C@H](C)O1` [doxorubicin], “remained sensitive”.
